Measured values from US11260023B2, “Topical compositions containing rofecoxib and methods of making and using the same” (BRIORI BIOTECH, LLC, priority 2020, dated 2022).
Where “and” joins values, the source holds several entries; their conditions need not be identical. Equal values may be shown once.

Experiment: Solubility of rofecoxib in solvent systems containing two or three solvents; synergistic or antagonist effect
Type: physicochemical
Protocol: The solubility of rofecoxib in solvent systems containing two or three solvents was determined. In solvent systems containing two solvents, […] of each solvent was added to 100 mg of rofecoxib. In solvent systems containing three solvents, […] of each solvent was added to 100 mg of rofecoxib. The samples were mixed using the protocol for solvent systems containing single solvents above. Serial dilutions of the rofecoxib solvent solutions were made (1:100 v:v), (1:1000 v/v), and (1:2000 v/v). Solvents without rofecoxib were diluted with methanol and used to blank a Beckman DU-7400 spectrophotometer. The absorbance of the samples was determined at a wavelength of 279.1 nm. The concentration of rofecoxib dissolved in the solvent was calculated using Beer's Law. The ability of the solvent systems to synergistically dissolve rofecoxib or antagonistically dissolve rofecoxib (reduce the ability of rofecoxib to dissolve was determined) according to the protocol below. The contribution for solubility of a single solvent in a two-mixture solution was calculated to be ½ of the calculated solubility of rofecoxib in one gram of excipient. Likewise, the contribution for solubility of a three-mixture was calculated to be ⅓ of the calculated solubility of rofecoxib in one gram of excipient. The expected solubility for a mixture is the addition of the contribution of each excipient. […] The percent change between the expected solubility and actual solubility was determined. […] Similar calculations are utilized for solvent systems containing three or more solvents.

Structure (SMILES): CS(=O)(=O)c1ccc(C2=C(c3ccccc3)C(=O)OC2)cc1 [Rofecoxib]
- % Change (observed vs expected solubility) (in DI + PGD): 123.9%
- Expected Solubility (in DI + PGD): 23.04 mg/g
- Observed Solubility (in DI + PGD): 28.54 mg/g
- % Change (observed vs expected solubility) (in EA + AC): 79.1%
- Expected Solubility (in EA + AC): 14.52 mg/g
- Observed Solubility (in EA + AC): 11.49 mg/g
- % Change (observed vs expected solubility) (in EA + AT): 82.6%
- Expected Solubility (in EA + AT): 2.91 mg/g
- Observed Solubility (in EA + AT): 2.40 mg/g
- % Change (observed vs expected solubility) (in EA + BA): 94.1%
- Expected Solubility (in EA + BA): 12.52 mg/g
- Observed Solubility (in EA + BA): 11.78 mg/g
- % Change (observed vs expected solubility) (in EA + DGME): 55.4%
- Expected Solubility (in EA + DGME): 7.29 mg/g
- Observed Solubility (in EA + DGME): 4.04 mg/g
- % Change (observed vs expected solubility) (in EA + DI): 62.0%
- Expected Solubility (in EA + DI): 22.32 mg/g
- Observed Solubility (in EA + DI): 13.84 mg/g
- % Change (observed vs expected solubility) (in EA + DIA): 85.7%
- Expected Solubility (in EA + DIA): 3.77 mg/g
- Observed Solubility (in EA + DIA): 3.23 mg/g
- % Change (observed vs expected solubility) (in EA + DMSO): 122.9%
- Expected Solubility (in EA + DMSO): 74.55 mg/g
- Observed Solubility (in EA + DMSO): 91.63 mg/g
- % Change (observed vs expected solubility) (in EA + DS): 88.0%
- Expected Solubility (in EA + DS): 3.67 mg/g
- Observed Solubility (in EA + DS): 3.22 mg/g
- % Change (observed vs expected solubility) (in EA + IPTD): 41.5%
- Expected Solubility (in EA + IPTD): 2.75 mg/g
- Observed Solubility (in EA + IPTD): 1.14 mg/g
- % Change (observed vs expected solubility) (in EA + M24D): 110.4%
- Expected Solubility (in EA + M24D): 3.05 mg/g
- Observed Solubility (in EA + M24D): 3.36 mg/g
- % Change (observed vs expected solubility) (in EA + MP): 75.3%
- Expected Solubility (in EA + MP): 101.75 mg/g
- Observed Solubility (in EA + MP): 76.59 mg/g
- % Change (observed vs expected solubility) (in EA + OA): 38.5%
- Expected Solubility (in EA + OA): 2.95 mg/g
- Observed Solubility (in EA + OA): 1.14 mg/g
- % Change (observed vs expected solubility) (in EA + PC): 103.9%
- Expected Solubility (in EA + PC): 27.47 mg/g
- Observed Solubility (in EA + PC): 28.53 mg/g
- % Change (observed vs expected solubility) (in EA + PEG): 120.0%
- Expected Solubility (in EA + PEG): 9.32 mg/g
- Observed Solubility (in EA + PEG): 11.19 mg/g
- % Change (observed vs expected solubility) (in EA + PGD): 109.1% and 100.3%
- Expected Solubility (in EA + PGD): 6.22 mg/g
- Observed Solubility (in EA + PGD): 6.78 mg/g and 6.23 mg/g
- % Change (observed vs expected solubility) (in EA + PPG): 156.1%
- Expected Solubility (in EA + PPG): 2.90 mg/g
- Observed Solubility (in EA + PPG): 4.53 mg/g
- % Change (observed vs expected solubility) (in EA + PS20): 107.9%
- Expected Solubility (in EA + PS20): 7.34 mg/g
- Observed Solubility (in EA + PS20): 7.92 mg/g
- % Change (observed vs expected solubility) (in EA + PS80): 105.8%
- Expected Solubility (in EA + PS80): 7.61 mg/g
- Observed Solubility (in EA + PS80): 8.05 mg/g
- % Change (observed vs expected solubility) (in MP + EA): 71.4%
- Expected Solubility (in MP + EA): 107.75 mg/g
- Observed Solubility (in MP + EA): 76.89 mg/g
- % Change (observed vs expected solubility) (in MP + PEG + PGD): 35.17%
- Expected Solubility (in MP + PEG + PGD): 72.69 mg/g
- Expected Solubility (in PC + AC): 36.48 mg/g and 36.5 mg/g
- % Change (observed vs expected solubility) (in PC + AC + MP): 34.18%
- Expected Solubility (in PC + AC + MP): 90.34 mg/g
- % Change (observed vs expected solubility) (in PC + AC + PEG): 123.74%
- Expected Solubility (in PC + AC + PEG): 28.72 mg/g
- Observed Solubility (in PC + AC + PEG): 35.53 mg/g
- % Change (observed vs expected solubility) (in PC + AC + PGD): 200.59% and 129.71% and 114.18%
- Expected Solubility (in PC + AC + PGD): 26.65 mg/g
- Observed Solubility (in PC + AC + PGD): 53.45 mg/g and 34.56 mg/g
- % Change (observed vs expected solubility) (in PC + BA): 99.3%
- Expected Solubility (in PC + BA): 34.49 mg/g
- Observed Solubility (in PC + BA): 34.26 mg/g
- % Change (observed vs expected solubility) (in PC + BA + AC): 134.75%
- Expected Solubility (in PC + BA + AC): 30.85 mg/g
- Observed Solubility (in PC + BA + AC): 41.57 mg/g
- % Change (observed vs expected solubility) (in PC + BA + DMSO): 85.64%
- Expected Solubility (in PC + BA + DMSO): 70.86 mg/g
- % Change (observed vs expected solubility) (in PC + BA + MP): 21.30%
- Expected Solubility (in PC + BA + MP): 88.99 mg/g
- % Change (observed vs expected solubility) (in PC + BA + PEG): 63.48%
- Expected Solubility (in PC + BA + PEG): 27.37 mg/g
- % Change (observed vs expected solubility) (in PC + BA + PGD): 84.91%
- Expected Solubility (in PC + BA + PGD): 25.30 mg/g
- % Change (observed vs expected solubility) (in PC + MP): 69.3%
- Expected Solubility (in PC + MP): 123.72 mg/g
- Observed Solubility (in PC + MP): 85.76 mg/g
- % Change (observed vs expected solubility) (in PC + MP + PEG): 46.39%
- Expected Solubility (in PC + MP + PEG): 86.86 mg/g
- % Change (observed vs expected solubility) (in PC + MP + PGD): 21.70%
- Expected Solubility (in PC + MP + PGD): 84.79 mg/g
- % Change (observed vs expected solubility) (in PC + PEG + PGD): 153.76%
- Expected Solubility (in PC + PEG + PGD): 23.17 mg/g
- Observed Solubility (in PC + PEG + PGD): 35.62 mg/g
- % Change (observed vs expected solubility) (in PC + PGD): 123.0% and 97.8%
- Expected Solubility (in PC + PGD): 28.18 mg/g
- Observed Solubility (in PC + PGD): 34.66 mg/g and 27.55 mg/g
- % Change (observed vs expected solubility) (in PEG + DGME): 119.7%
- Expected Solubility (in PEG + DGME): 11.11 mg/g
- Observed Solubility (in PEG + DGME): 13.30 mg/g
- % Change (observed vs expected solubility) (in PEG + EA): 150.3%
- Expected Solubility (in PEG + EA): 9.32 mg/g
- Observed Solubility (in PEG + EA): 14.00 mg/g
- % Change (observed vs expected solubility) (in PEG + PGD): 124.5% and 120.8%
- Expected Solubility (in PEG + PGD): 10.04 mg/g
- Observed Solubility (in PEG + PGD): 12.50 mg/g and 12.13 mg/g
